# Laboratory results taken from paper PMC6597290 (Nature, 2019).
# What was measured:
# BT4096 = biological target: T1, BT4096 (Bacteroides thetaiotaomicron, UniProt Q8A0C5); assay: LC-MS time course of deacetylation; assay type: biochemical; settings: Tris-HCl 10 mM pH 7, 2.5 mM MgSO4 and Mn, 37 °C; 0-250 µM substrate
# T1 sequence (Q8A0C5 21-460): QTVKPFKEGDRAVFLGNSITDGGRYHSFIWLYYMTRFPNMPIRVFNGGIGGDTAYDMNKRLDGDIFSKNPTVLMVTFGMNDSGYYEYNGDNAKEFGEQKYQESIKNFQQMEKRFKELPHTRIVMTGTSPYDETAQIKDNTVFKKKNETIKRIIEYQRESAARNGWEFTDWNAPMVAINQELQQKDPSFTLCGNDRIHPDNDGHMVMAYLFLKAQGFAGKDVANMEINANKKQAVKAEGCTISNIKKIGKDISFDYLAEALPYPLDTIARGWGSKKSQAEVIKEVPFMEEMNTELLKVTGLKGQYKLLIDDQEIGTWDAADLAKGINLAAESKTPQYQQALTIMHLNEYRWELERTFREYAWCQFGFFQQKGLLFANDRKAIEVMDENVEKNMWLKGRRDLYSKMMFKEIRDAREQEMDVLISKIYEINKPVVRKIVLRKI
# BT2068 = biological target: T2, BT2068 (Bacteroides thetaiotaomicron, UniProt Q8A618); assay: LC-MS drug depletion by E. coli expressing bt2068; assay type: cell-based; settings: whole E. coli cells, anaerobic, 37 °C
# T2 sequence (Q8A618 1-253): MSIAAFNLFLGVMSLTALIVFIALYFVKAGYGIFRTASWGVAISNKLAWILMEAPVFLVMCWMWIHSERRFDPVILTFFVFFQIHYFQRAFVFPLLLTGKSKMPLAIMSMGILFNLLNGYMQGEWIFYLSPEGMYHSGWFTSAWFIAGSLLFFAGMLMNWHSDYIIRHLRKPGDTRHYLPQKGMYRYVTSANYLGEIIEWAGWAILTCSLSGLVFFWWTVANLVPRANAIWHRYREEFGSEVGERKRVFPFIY
compound,measurement,setting,value
CNCCN1C(=O)[C@H](OC(C)=O)[C@H](c2ccc(OC)cc2)Sc2ccccc21 [N-desmethyldiltiazem],LC-MS time course of deacetylation,BT4096,BT4096 also deacetylates N-desmethyldiltiazem
COc1ccc([C@@H]2Sc3ccccc3N(CCN(C)C)C(=O)[C@@H]2OC(C)=O)cc1 [diltiazem],LC-MS time course of deacetylation,BT4096,demonstrated that the purified enzyme catalyzes the drug transformation (Fig. 3c)
C#C[C@]1(O)CC[C@H]2[C@@H]3CCC4=CC(=O)CC[C@@H]4[C@H]3CC[C@@]21CC [levonorgestrel],LC-MS drug depletion by E. coli expressing bt2068,BT2068,BT2068 also metabolizes the structurally related compounds levonorgestrel and progesterone
CC(=O)[C@H]1CC[C@H]2[C@@H]3CCC4=CC(=O)CC[C@]4(C)[C@H]3CC[C@]12C [progesterone],LC-MS drug depletion by E. coli expressing bt2068,BT2068,BT2068 also metabolizes the structurally related compounds levonorgestrel and progesterone
